Laboratory results as given in article doi:10.1101/2025.01.28.635346v1 (bioRxiv, 2025).
Read-outs that look alike come from different tables or passages of the source. Bridge positions count the residues as written; N and C are the ends. Side chains are listed from the residue outwards. Peptide text beside a SMILES is read from it. * marks the point of attachment. Butanoyl(4-(4-I-phenyl)) = O=C(CCCc1ccc(I)cc1)*; PEG2 = NCCOCCOCCC(=O)O

What was measured:
[1] = Plasma stability, human plasma; format: in vitro ADME
ADRB2 = ADRB2 (Homo sapiens, UniProt P07550); test: Safetyscan47 GPCR cAMP, Agonist; format: cell-based; conditions: for Emax: read-out: Max Response
AVPR1A = AVPR1A (Homo sapiens, UniProt P37288); test: Safetyscan47 GPCR Calcium Flux, Agonist; format: cell-based; conditions: for Emax: read-out: Max Response
CNR2 = CNR2 (Homo sapiens, UniProt P34972); test: Safetyscan47 GPCR cAMP, Agonist; format: cell-based; conditions: for Emax: read-out: Max Response
NAV1.5 = NAV1.5 (Homo sapiens, UniProt Q14524); test: Safetyscan47 Ion Channel, Blocker; format: cell-based
INSR = INSR (Homo sapiens, UniProt P06213); test: Safetyscan47 Kinases Binding, Inhibitor; conditions: for Emax: read-out: Max Response
integrin αvβ6 = integrin αvβ6 (Homo sapiens, UniProt P06756+P18564); test: ELISA competition assay, integrin αvβ6 binding to LAP; conditions: αvβ6 IC50, ELISA competition vs LAP; mean, n ≥ 3
integrin α5β1 = integrin α5β1 (Homo sapiens, UniProt P05556+P08648); test: ELISA competition assay, integrin α5β1; format: binding
nAChR(a4/b2) = nAChR(a4/b2) (Homo sapiens, UniProt P17787+P43681); test: Safetyscan47 Ion Channel, Blocker; format: cell-based; conditions: for Emax: read-out: Max Response
ADRA2A = molecular target: T1, ADRA2A (Homo sapiens, UniProt P08913); test: Safetyscan47 GPCR cAMP, Antagonist; format: cell-based; conditions: for Emax: read-out: Max Response
T1 sequence (P08913 1-465): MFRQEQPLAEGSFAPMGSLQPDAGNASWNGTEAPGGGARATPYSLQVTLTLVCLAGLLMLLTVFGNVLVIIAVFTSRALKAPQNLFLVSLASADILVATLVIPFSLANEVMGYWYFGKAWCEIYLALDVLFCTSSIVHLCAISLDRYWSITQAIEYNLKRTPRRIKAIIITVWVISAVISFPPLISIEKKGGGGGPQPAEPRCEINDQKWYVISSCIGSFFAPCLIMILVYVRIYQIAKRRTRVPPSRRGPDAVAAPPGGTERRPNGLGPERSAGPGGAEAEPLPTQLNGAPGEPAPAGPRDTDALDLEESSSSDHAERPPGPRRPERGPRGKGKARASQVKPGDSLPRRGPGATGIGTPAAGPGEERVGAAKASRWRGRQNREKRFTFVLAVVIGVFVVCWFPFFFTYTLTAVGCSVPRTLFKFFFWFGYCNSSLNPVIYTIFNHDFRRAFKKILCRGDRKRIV

ADRA1A = molecular target: T2, ADRA1A (Homo sapiens, UniProt P35348); test: Safetyscan47 GPCR Calcium Flux, Antagonist; format: cell-based; conditions: for Emax: read-out: Max Response
T2 sequence (P35348 1-466): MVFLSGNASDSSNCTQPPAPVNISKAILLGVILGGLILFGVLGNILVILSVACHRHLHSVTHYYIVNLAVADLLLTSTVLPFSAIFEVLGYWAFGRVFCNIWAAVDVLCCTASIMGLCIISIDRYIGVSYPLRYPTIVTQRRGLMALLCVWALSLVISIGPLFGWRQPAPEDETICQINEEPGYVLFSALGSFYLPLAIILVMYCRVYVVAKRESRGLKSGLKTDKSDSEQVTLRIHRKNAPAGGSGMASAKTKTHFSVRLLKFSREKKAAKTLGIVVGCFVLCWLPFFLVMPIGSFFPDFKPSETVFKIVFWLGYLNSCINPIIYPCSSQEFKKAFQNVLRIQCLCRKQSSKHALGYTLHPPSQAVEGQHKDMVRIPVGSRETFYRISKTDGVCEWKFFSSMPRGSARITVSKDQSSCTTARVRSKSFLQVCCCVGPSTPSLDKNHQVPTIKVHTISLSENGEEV

hERG = hERG (Homo sapiens, UniProt Q12809); test: Safetyscan47 Ion Channel, Blocker; format: cell-based
HRH2 = HRH2 (Homo sapiens, UniProt P25021); test: Safetyscan47 GPCR cAMP, Agonist; format: cell-based; conditions: for Emax: read-out: Max Response
ADRB1 = ADRB1 (Homo sapiens, UniProt P08588); test: Safetyscan47 GPCR cAMP, Antagonist; format: cell-based; conditions: for Emax: read-out: Max Response

| Structure (SMILES) | remaining at 0.5 h, 2 μM [1] [%] | remaining at 4 h, 2 μM [1] [%] | EC50 (ADRB2) [µM] | Emax (ADRB2) [%] | EC50 (AVPR1A) [µM] | Emax (AVPR1A) [%] | EC50 (CNR2) [µM] | Emax (CNR2) [%] | Emax (NAV1.5) [%] | IC50 (NAV1.5) [µM] | IC50 (INSR) [µM] | Emax (INSR) [%] | IC50 (integrin αvβ6) [µM] | IC50 (integrin α5β1) [µM] | IC50 (nAChR(a4/b2)) [µM] | Emax (nAChR(a4/b2)) [%] | IC50 (ADRA2A) [µM] | Emax (ADRA2A) [%] | IC50 (ADRA1A) [µM] | Emax (ADRA1A) [%] | other results |
| --- | --- | --- | --- | --- | --- | --- | --- | --- | --- | --- | --- | --- | --- | --- | --- | --- | --- | --- | --- | --- | --- |
| CC[C@H](C)[C@H](NC(=O)[C@H](CC(C)C)NC(=O)[C@H](CC(=O)O)NC(=O)CNC(=O)[C@H](CCCNC(=N)N)NC(=O)[C@@H](NC(=O)[C@H](Cc1ccccc1)NC(=O)[C@H](Cc1ccc(O)cc1)NC(=O)[C@@H]1CCC(=O)NCC(=O)NCC(=O)N[C@@H](CCCNC(=N)N)C(=O)NCC(=O)N[C@@H](Cc2c[nH]cn2)C(=O)N[C@@H](C(C)C)C(=O)N2CCC[C@H]2C(=O)N1)C(C)C)C(=O)N[C@@H](CO)C(=O)N[C@@H](Cc1ccccc1)C(=O)N[C@@H](Cc1ccc(O)cc1)C(=O)N[C@@H](CCCCN)C(=O)O [lassotide 36] (GGRGHVPEYFVRGDLISFYK-OH; lactam N-8) | 91.9 | 93.2 | > 45 | 0 | > 45 | 1.03 | > 45 | 6.08 | 39.5 | > 45 | > 45 | 17.4 | 0.012 | 2.35 | > 45 | 2.98 | > 45 | 0 | > 45 | 9.9 | IC50 (hERG): > 45 µM; Emax (hERG; human): 5.06%; EC50 (HRH2): > 45 µM; Emax (HRH2): 0%; IC50 (ADRB1): > 45 µM; Emax (ADRB1): 15.6% |
| CC[C@H](C)[C@H](NC(=O)[C@H](CC(C)C)NC(=O)[C@H](CC(=O)O)NC(=O)CNC(=O)[C@H](CCCNC(=N)N)NC(=O)[C@@H](NC(=O)[C@H](Cc1ccccc1)NC(=O)[C@H](Cc1ccc(O)cc1)NC(=O)[C@@H]1CCC(=O)NCC(=O)NCC(=O)N[C@@H](CCCNC(=N)N)C(=O)NCC(=O)N[C@@H](Cc2c[nH]cn2)C(=O)N[C@@H](C(C)C)C(=O)N2CCC[C@H]2C(=O)N1)C(C)C)C(=O)N[C@@H](CO)C(=O)N[C@@H](Cc1ccccc1)C(=O)N[C@@H](Cc1ccc(O)cc1)C(=O)N[C@@H](CCCCNC(=O)CCOCCOCCNC(=O)CCCc1ccc(I)cc1)C(=O)O [lassotide 47] (GGRGHVPEYFVRGDLISFYK([PEG2-Butanoyl(4-(4-I-phenyl))])-OH; lactam N-8) | 95.1 | 92.2 | > 45 | 0 | > 45 | 8.02 | > 45 | 1.85 | 0 | > 45 | > 45 | 11.2 | 0.0032 | 5.02 | > 45 | 4.35 | > 45 | 0 | > 45 | 2.58 | Emax (hERG; human): 1.41%; IC50 (hERG; human): > 45 µM; EC50 (HRH2): > 45 µM; Emax (HRH2): 0%; IC50 (ADRB1): > 45 µM; Emax (ADRB1): 40% |
